Biological target: prolyl 4-hydroxylase (collagen, EC 1.14.11.2)
Test: Inhibition of prolyl 4-hydroxylase by chromatographic determination of [14C]-succinic acid on ion-exchange minicolumna

SMILES	IC50 [µM]
CCOc1ccc(NC(=O)c2ccc(-c3ccc(C(=O)O)cn3)nc2)cc1 [5'-(4-Ethoxy-phenylcarbamoyl)-[2,2']bipyridinyl-5-carboxylic acid]	0.32
O=C(NS(=O)(=O)c1ccccc1)c1ccc(-c2ccc(C(=O)NS(=O)(=O)c3ccccc3)cn2)nc1 [3-phenylsulfonamidocarbonyl-6-(5-phenylsulfonamidocarbonyl-2-pyridyl)pyridine]	5.04
